Data: patent US7780873B2, “Bioactive complexes compositions and methods of use thereof” (Texas A&M University System, priority 2004, dated 2010)
Like-named read-outs stand apart in the source and are kept apart here.

Assays:
[1] = rat duodenal infusion, cited from earlier work
[2] = Lipid oxidation of O/W Menhaden oil-based emulsions; assay type: physicochemical; settings: gallic acid alone or with coenzyme Q10; emulsified with egg yolk PC; pH 6.0; GC
[3] = tested on: human promyelocytic leukemia HL-60 cells; settings: cited from earlier work
[4] = from emulsions containing corn oil

Row | Structure (SMILES) | average recovery in the lymph [1, 4] | average recovery in the lymph ([1]; from olive oil emulsion) | pro-/antioxidative properties of control samples [2] | apoptotic cell death [3]
1 | CC(C)=CCC/C(C)=C/C=C/C(C)=C/C=C/C(C)=C/C=C/C=C(C)/C=C/C=C(C)/C=C/C=C(\C)CCC=C(C)C [LYC, lycopene] | 2.5% | 6% | – | –
2 | CC1=C(/C=C/C(C)=C/C=C/C(C)=C/C=C/C=C(C)/C=C/C=C(C)/C=C/C2=C(C)C(=O)[C@@H](O)CC2(C)C)C(C)(C)C[C@H](O)C1=O [astaxanthin] | 13% | 20% | – | –
3 | O=C(O)c1cc(O)c(O)c(O)c1 [gallic acid] | – | – | prooxidative properties | induced apoptotic cell death
